Article PMC11945486, “TAS1R2/TAS1R3 Single-Nucleotide Polymorphisms Affect Sweet Taste Receptor Activation by Sweeteners: The SWEET Project” (Nutrients, 2025)
Like-named read-outs stand apart in the source and are kept apart here. No end group written: not given here.

Biological target: T1, human TAS1R2-WT/TAS1R3-T716M (Homo sapiens, UniProt Q7RTX0+Q8TE23, T716M)
T1 construct: expressed in transfected cells; host or cells: HEK293T stably expressing Gα16gust44
T1 sequence (Q8TE23 20-839): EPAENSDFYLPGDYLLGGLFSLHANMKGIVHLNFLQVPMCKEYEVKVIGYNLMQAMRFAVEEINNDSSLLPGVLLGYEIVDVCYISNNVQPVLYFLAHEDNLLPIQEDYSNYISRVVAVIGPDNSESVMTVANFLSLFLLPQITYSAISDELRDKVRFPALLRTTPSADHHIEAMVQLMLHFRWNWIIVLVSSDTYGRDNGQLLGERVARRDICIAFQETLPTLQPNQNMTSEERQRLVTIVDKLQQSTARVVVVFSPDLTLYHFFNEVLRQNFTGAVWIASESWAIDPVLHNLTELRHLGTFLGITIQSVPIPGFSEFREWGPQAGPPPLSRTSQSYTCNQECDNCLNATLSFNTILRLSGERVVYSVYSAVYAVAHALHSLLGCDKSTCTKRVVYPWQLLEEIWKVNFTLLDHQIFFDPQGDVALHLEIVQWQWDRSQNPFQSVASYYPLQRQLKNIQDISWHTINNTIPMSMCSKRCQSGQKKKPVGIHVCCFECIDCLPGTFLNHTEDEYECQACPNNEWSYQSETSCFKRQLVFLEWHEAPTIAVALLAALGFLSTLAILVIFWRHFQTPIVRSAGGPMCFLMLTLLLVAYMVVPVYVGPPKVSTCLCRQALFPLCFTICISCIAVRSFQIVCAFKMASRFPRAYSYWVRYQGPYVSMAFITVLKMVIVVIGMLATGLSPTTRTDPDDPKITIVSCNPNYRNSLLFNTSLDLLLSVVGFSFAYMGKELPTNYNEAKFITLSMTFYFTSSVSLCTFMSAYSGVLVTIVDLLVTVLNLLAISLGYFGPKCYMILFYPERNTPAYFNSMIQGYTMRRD
T1 sequence (Q7RTX0 21-852 T716M): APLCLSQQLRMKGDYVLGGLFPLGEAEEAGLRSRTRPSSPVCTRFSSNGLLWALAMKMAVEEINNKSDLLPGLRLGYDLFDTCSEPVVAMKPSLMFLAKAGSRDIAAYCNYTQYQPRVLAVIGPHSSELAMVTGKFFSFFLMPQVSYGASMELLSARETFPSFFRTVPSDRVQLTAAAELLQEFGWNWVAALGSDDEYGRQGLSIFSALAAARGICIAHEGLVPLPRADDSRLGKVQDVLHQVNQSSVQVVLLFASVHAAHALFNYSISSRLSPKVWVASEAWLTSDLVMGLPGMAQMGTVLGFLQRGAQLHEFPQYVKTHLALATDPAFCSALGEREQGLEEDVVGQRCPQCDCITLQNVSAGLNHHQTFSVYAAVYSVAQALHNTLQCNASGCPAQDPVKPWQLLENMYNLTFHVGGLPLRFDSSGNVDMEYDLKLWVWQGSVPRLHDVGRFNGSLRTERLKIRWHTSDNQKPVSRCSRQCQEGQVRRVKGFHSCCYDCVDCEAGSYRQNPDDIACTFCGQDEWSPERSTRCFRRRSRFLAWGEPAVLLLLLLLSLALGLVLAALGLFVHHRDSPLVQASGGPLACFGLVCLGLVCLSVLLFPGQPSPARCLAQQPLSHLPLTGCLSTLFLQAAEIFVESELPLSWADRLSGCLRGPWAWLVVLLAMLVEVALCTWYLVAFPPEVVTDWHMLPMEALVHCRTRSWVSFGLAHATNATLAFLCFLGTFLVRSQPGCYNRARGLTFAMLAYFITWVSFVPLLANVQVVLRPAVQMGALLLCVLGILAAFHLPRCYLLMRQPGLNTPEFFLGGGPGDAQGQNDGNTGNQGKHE
Assay: Calcium mobilisation assay, TAS1R2-WT with TAS1R3 variant T716M
Assay type: cell-based
Details: for Max ΔF/F0: maximal signal amplitude
Source text: The coding sequences for TAS1R2 and TAS1R3 were commercially synthesised, and the human codon was optimised for expression in human cells. The coding sequences of human TAS1R2 and TAS1R3 were subcloned and inserted into the mammalian expression vectors pcDNA6/myc-HisA and pcDNA4/myc-HisA (Invitrogen; Thermo Fisher Scientific; Illkirch, France) between the EcoRI and NotI restriction sites, generating the plasmids pcDNA6-TAS1R2 and pcDNA4-TAS1R3, respectively. To increase protein expression in mammalian cells, an upstream start codon was used, which was a sequence called MAX, corresponding to the QBI SP163 element also described in pcDNA4-HisMax (Invitrogen; Thermo Fisher Scientific; Illkirch, France). To measure the expression level of the receptor by immunohistochemistry, we used the FLAG sequence ([…]) in the C-terminal position, which encodes the FLAG tag epitope. SNP variants of TAS1R2 and TAS1R3 were constructed based on […], respectively, using site-directed mutagenesis (Genewiz; Leipzig, Germany).
The HEK293T cells were kindly provided by Jay P. Slack (Givaudan Flavors Corporation; Cincinnati, OH, USA). HEK293T cells stably transfected with Gα16gust44 [43, 67] were seeded in poly-D-lysine-coated clear-bottom black 96-well plates (0.35 × 10^5 cells/well) in high-glucose DMEM supplemented with 2 mM GlutaMAX, 10% dialysed foetal bovine serum with penicillin/streptomycin and G418 (400 μg/mL) at 37 °C and 6.3% CO2 in a humidified atmosphere as previously reported. […] As a negative control, HEK293T cells were mock-transfected with the empty expression vector. After a further 24 h of incubation, the HEK293T cells were washed with C1 buffer (130 mM NaCl, 5 mM KCl, 10 mM HEPES pH 7.4 and 2 mM CaCl2). The 96-well plates containing the cells were then stimulated with sweet-tasting compounds. […] Different concentration ranges were tested depending on the sweet compound injected. The Ca^2+ changes were expressed as fractional changes in fluorescent light intensity: ΔF/F = (F − F0)/F0, where F was the fluorescent light intensity at each point, and F0 was the value of emitted fluorescent light prior to stimulus application. To calculate dose–response relationships, the changes in fluorescence upon stimulus application were averaged, mock-subtracted and baseline-corrected. The dose–response data obtained were adjusted using a 4-parameter logistic equation. The half-maximal effective concentrations (EC50 values) and maximal signal amplitudes were calculated using SigmaPlot software (version 15.0) (Systat Software; San Jose, CA, USA).
For in vitro calcium mobilisation assay performed on hTAS1R2-SNPs, hTAS1R3-SNPs and mTAS1R3-I60T, 6 to 7 concentrations were tested for each sweet compound, plus buffer alone. All concentration–receptor combinations were measured in duplicate, and each experiment was repeated at least 4 times (8 wells/concentration). Results were expressed for each concentration as ΔF/F mean ± SEM and represented as dose–response curves.

Compound	R1 = Variant EC50/WT EC50	Max ΔF/F0	EC50 (read-out: EC50)	EC50 (brazzein)
CC1=CC(=O)NS(=O)(=O)O1 [Acesulfame K, acesulfame K]	1.2	0.30 ± 0.01	739 ± 72 µM	
O=S(=O)(O)NC1CCCCC1 [Cyclamate, cyclamate]			1860 ± 45 µM	
C[C@H](CC[C@@H](O[C@@H]1O[C@H](CO[C@@H]2O[C@H](CO)[C@@H](O)[C@H](O)[C@H]2O)[C@@H](O)[C@H](O)[C@H]1O[C@@H]1O[C@H](CO)[C@@H](O)[C@H](O)[C@H]1O)C(C)(C)O)[C@H]1CC[C@@]2(C)[C@@H]3CC=C4[C@@H](CC[C@H](O[C@@H]5O[C@H](CO[C@@H]6O[C@H](CO)[C@@H](O)[C@H](O)[C@H]6O)[C@@H](O)[C@H](O)[C@H]5O)C4(C)C)[C@]3(C)[C@H](O)C[C@]12C [Mogroside V, mogroside V]	1.2	1.01 ± 0.01	36.4 ± 1 µM	
COc1ccc(CCC(=O)c2c(O)cc(O[C@@H]3O[C@H](CO)[C@@H](O)[C@H](O)[C@H]3O[C@@H]3O[C@@H](C)[C@H](O)[C@@H](O)[C@H]3O)cc2O)cc1O [NHDC, neohesperidin dihydrochalcone]	1.1	0.84 ± 0.09	55.4 ± 18.4 µM	
COC(=O)[C@H](Cc1ccccc1)NC(=O)[C@H](CC(=O)O)NCCC(C)(C)C [Neotame]	1.1	0.54 ± 0.01	1.3 ± 0.06 µM	

Further lines, results first:

R1 = Variant EC50/WT EC50	Max ΔF/F0	EC50 (read-out: EC50)	EC50 (brazzein)	Compound
1.6	1.73 ± 0.33	21.6 ± 11.4 µM		C=C(C)[C@@H]1CC=C(/C=N/O)CC1 [Perillartine, perillartine]
0.8	1.10 ± 0.06	30.7 ± 4 µM		C=C1C[C@@]23CC[C@H]4[C@@](C)(CCC[C@@]4(C)C(=O)O[C@@H]4O[C@H](CO)[C@@H](O)[C@H](O[C@@H]5O[C@H](CO)[C@@H](O)[C@H](O)[C@H]5O)[C@H]4O[C@@H]4O[C@H](CO)[C@@H](O)[C@H](O)[C@H]4O)[C@@H]2CC[C@]1(O[C@@H]1O[C@H](CO)[C@@H](O)[C@H](O[C@@H]2O[C@H](CO)[C@@H](O)[C@H](O)[C@H]2O)[C@H]1O[C@@H]1O[C@H](CO)[C@@H](O)[C@H](O)[C@H]1O)C3 [Rebaudioside M, rebaudioside M]
1.5	0.47 ± 0.02	161 ± 14 µM		OC[C@H]1O[C@H](O[C@]2(CCl)O[C@H](CCl)[C@@H](O)[C@@H]2O)[C@H](O)[C@@H](O)[C@H]1Cl [Sucralose]
1.0	0.94 ± 0.04		112.6 ± 13.6 µg/mL	brazzein (QDKCKKVYENYPVSKCQLANQCNYDCKLDKHARSGECFYDEKRNLQCICDYCEY; ends and bridges not checked; cysteine pairing not given here; UniProt P56552 1-54, looked up) [sweet-tasting protein obtained by recombinant production using the yeast Pichia pastoris]
1.0	0.76 ± 0.04	10 ± 0.5 µM		thaumatin
